PMC6026870, “Selective induction of cancer cell death by VDAC1‐based peptides and their potential use in cancer therapy” (Molecular Oncology, 2018)

Target: T1, HK‐I (Homo sapiens, UniProt P19367)
T1 construct: His; made in house; host or cells: Escherichia coli BL21
T1 sequence (P19367 1-917): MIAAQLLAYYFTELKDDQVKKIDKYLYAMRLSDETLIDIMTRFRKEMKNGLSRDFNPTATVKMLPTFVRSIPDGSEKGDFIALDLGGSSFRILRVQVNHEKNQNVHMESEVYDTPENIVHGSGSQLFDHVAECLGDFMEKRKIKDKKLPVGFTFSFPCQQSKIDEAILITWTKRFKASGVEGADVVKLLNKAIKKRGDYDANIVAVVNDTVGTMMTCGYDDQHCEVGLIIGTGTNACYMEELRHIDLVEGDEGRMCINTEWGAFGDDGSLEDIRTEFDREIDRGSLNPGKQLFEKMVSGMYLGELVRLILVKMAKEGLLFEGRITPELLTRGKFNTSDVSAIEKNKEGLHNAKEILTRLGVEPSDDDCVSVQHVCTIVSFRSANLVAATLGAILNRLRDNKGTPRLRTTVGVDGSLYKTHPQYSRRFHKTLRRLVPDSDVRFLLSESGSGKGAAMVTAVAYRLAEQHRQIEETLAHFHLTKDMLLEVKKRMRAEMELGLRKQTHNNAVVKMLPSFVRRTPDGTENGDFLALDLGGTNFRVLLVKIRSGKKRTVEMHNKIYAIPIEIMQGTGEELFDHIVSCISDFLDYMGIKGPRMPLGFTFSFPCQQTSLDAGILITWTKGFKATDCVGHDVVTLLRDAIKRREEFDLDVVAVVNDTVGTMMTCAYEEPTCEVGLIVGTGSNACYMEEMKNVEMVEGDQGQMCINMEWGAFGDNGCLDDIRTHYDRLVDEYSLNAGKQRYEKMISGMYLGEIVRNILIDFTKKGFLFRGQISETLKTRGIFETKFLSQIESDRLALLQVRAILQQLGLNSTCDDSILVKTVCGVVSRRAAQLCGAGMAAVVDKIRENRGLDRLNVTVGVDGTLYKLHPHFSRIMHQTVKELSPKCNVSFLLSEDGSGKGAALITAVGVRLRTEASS
Test: HK activity assay with purified recombinant HK‐I
Format: biochemical
Settings: HK‐I 13 µg/ml pre‐incubated with peptide; 1 mM ATP, G6PDH‐coupled, absorbance at 340 nm (Fig. S3B)
Experimental: Human HK‐I and HK‐II were cloned into plasmid pET‐His DNA and expressed in Escherichia coli BL21 upon IPTG induction. HK was purified from lysed cells using a HiTrap nickel column (GE Healthcare). Following dialysis, the imidazole‐eluted protein was further purified using a Blue HiTrap column (GE Healthcare). HK was eluted using 10 mM glucose, 20 mM Tris/HCl (pH 8.5), 20% glycerol, and 1.5 mM glucose‐6‐phosphate. Fractions were analyzed by SDS/PAGE and tested for HK activity. The purified active fractions were combined and stored in aliquots at −80 °C.
Change in absorbance at 340 nm (NADH production) was spectrophotometrically measured following addition of 1 mM ATP and 0.05 unit·mL^−1 glucose‐6‐phosphate dehydrogenase.
Purified HK-I (13 µg/ml) was pre-incubated with the indicated concentrations of Tf-D-LP4 (●) or R-Tf-D-LP4 (○) and assayed for HK activity as described in Materials and Methods. Change in absorbance at 340 nm (NADH production) was spectrophotometrically measured following addition of 1 mM ATP, and 0.05 unit/ml glucose-6-phosphate dehydrogenase. C. Tf-D-LP4 and R-Tf-D-LP4 solubility. The peptides were dissolved to a final concentration of 5 mM in 5% DMSO and diluted to 1.1 mM in HBSS. Peptide absorbance in the supernatant was measured at 280 nm following centrifugation at 12,000g before and after 75 min incubation at 24 °C. […] Cell death was analyzed using PI and FACS analysis. […]

inhibition of purified HK‐I activity: inhibits HK-I activity
SMILES: CC[C@H](C)[C@H](NC(=O)[C@H](Cc1ccc(O)cc1)NC(=O)[C@@H]1CCCN1C(=O)[C@H](CCCNC(=N)N)NC(=O)[C@H](Cc1c[nH]cn1)NC(=O)[C@@H](CO)NC(=O)[C@@H](Cc1c[nH]c2ccccc12)NC(=O)[C@H](NC(=O)[C@@H](Cc1c[nH]c2ccccc12)NC(=O)[C@@H](CCC(=O)O)NC(=O)[C@@H](CCCCN)NC(=O)[C@@H](CCCCN)NC(=O)[C@@H](CC(C)C)NC(=O)[C@@H](CCC(=O)O)NC(=O)[C@H](NC(=O)[C@@H](C)NC(=O)[C@H](NC(=O)[C@@H](CC(N)=O)NC(=O)[C@@H](CC(C)C)NC(=O)[C@@H](C)NC(=O)[C@@H](Cc1c[nH]c2ccccc12)NC(=O)[C@H](NC(=O)[C@@H](C)NC(=O)CNC(=O)[C@@H](CC(N)=O)NC(=O)[C@@H](CO)NC(=O)[C@@H](CC(N)=O)NC(=O)[C@@H](CCCCN)NC(=O)[C@@H](Cc1c[nH]c2ccccc12)NC(=O)[C@H](NC(=O)[C@@H](Cc1c[nH]c2ccccc12)NC(=O)[C@H](N)CCCCN)[C@H](C)O)[C@H](C)O)C(C)C)[C@H](C)O)[C@H](C)O)C(=O)N[C@@H](C)C(=O)N[C@@H](Cc1c[nH]cn1)C(=O)O [R‐Tf‐D‐LP4]
